For one test, the system named is Barley. Description: Whole plant screen for plant growth regulator activity, barley (BR). It is filed as in vivo, Barley (Atem). The conditions noted are these: BR, 4000 ppm (4 kg/ha), visual score after 2-6 weeks; for T = Tillering or side shooting: * = decrease in tillering. The protocol: (§1) Compounds 1 to 3 in Table 1 were tested for plant growth regulator activity against five species for various growth effects relevant to plant growth regulation.
(§2) The plant species used in this screen are presented in Table II with the leaf stage at which they were sprayed. Each chemical was applied at 4000 ppm (4 kg/ha in a 1000 l/ha field volume) using a tracksprayer and a SS8004E (Teejet) nozzle.
(§3) After spray the plants were grown in a glasshouse with 25° C. day/22° C. night temperatures and supplementary lighting was supplied when necessary (from mercury vapour lamps), to provide a 16 hour photoperiod. The exception to this were the temperate cereals, wheat and barley which were grown in 16° C. day/13° C. night temperatures.
(§4) After 2-6 weeks in the glasshouse, depending on the time of year, the plants were visually assessed for morphological characteristics. Formulation blanks were used as controls to assess the plants.
(§5) Additional compounds in Table I were tested for plant growth regulator activity using the method of Example 60 except that Tomato was included in the test as an additional species. Tomato, Ailsa Craig, was grown in a single 3 inch pot in peat and treated at the 2 to 21/2 leaves growth stage. The results were presented in Table IV in which Tomato is indicated by the code TO and the Key is otherwise as for Table III.

The test system of the next test is Wheat. Kind of test: Whole plant screen for plant growth regulator activity, wheat (WW). The conditions noted are these: WW, 4000 ppm (4 kg/ha), visual score after 2-6 weeks; for T = Tillering or side shooting: * = decrease in tillering. It counts as in vivo, Wheat (Timmo). The protocol:
as §1, §2, §3, §4, §5

Test [1] has as its system Rice. Kind of test: Whole plant screen for plant growth regulator activity, rice (RC). It counts as in vivo, Rice (Ishikari). The following applies: 4000 ppm (4 kg/ha), visual score after 2-6 weeks. The procedure:
as §1, §2, §3, §4, §5

The subject of a further test is Apple. Description: Whole plant screen for plant growth regulator activity, apple (AP). It counts as in vivo, Apple (Red Delicious). The conditions noted are these: 4000 ppm (4 kg/ha), visual score after 2-6 weeks. The protocol: as §1, §2, §3, §4, §5
For another test, the system named is Tomato. Kind of test: Whole plant screen for plant growth regulator activity, tomato (TO). The conditions noted are these: 4000 ppm (4 kg/ha), visual score after 2-6 weeks. It is filed as in vivo, Tomato (Ailsa Craig). The procedure:
as §2, §3, §4, §5
An astrisk (*) after a score under "T" (tillering) indicated a decrease in tillering.

For test [2], the system named is Rice. Kind of test: Intermediate Retardant Test, rice. It counts as in vivo, Rice (Ishikari). The conditions noted are these: Oryza sativa, 672 h, overall spray, approximately 28 days, Table VI, read-out: Percentage Reduction in Height of Rice (Compared to formulation blank). An excerpt: (§6) Three species are involved in this test RICE, SPRING-BARLEY and APPLES. The variety and growth stages at spray are outlined in Table V. Compounds were applied at 500 ppm and 2000 ppm respectively (0.5 kg and 2 kg/ha^-1 at a field volume of 1000 l/ha^-1) as an overall spray except in the case of certain tests on APPLES. This gives a foliar and root component in the test, i.e., this test will detect the activity of both root and foliar acting compounds. The intermediate retardant test on APPLES of which the results are given in Table IX was different, in that a foliar (only) spray at 2000 ppm was compared with a root drench, also at 2000 ppm. The rice was grown in 4" `paddy` pots, i.e., the roots and bottom of the stems are immersed in water under conditions corresponding to those in paddy fields. Spring barley and apples were grown in 4" pots. The plants were assessed for height to top-most ligule at approximately 28 days after treatment for spring barley and rice and for height to apex at approximately 28 days after the treatment for apples. In each case the result for the 500 ppm and 2000 ppm test for each compound is compared to the height of the formulation blank in that test, presented as a percentage reduction in height compared to the formulation blank.
(§7) The prior art compound was compared with compounds of the present invention in side-by-side comparisons using the Intermediate Retardant Test described in Example 62, and the results are given in Tables X to XII where `A` is the prior art compound, 2-methyl-1-isopropyl-1-(pyrimidin-5-yl)-propan-1-ol).

The next test has as its system Spring Barley. Kind of test: Intermediate Retardant Test, spring barley. It is filed as in vivo, Spring Barley (Atem/kym). The following applies: Hordeum vulgare, 672 h, overall spray, approximately 28 days, Table VII, read-out: Percentage Reduction in Height of Spring Barley (Compared to formulation blank).
Source text: as §6, §7

A further test has as its system Apples. Description: Intermediate Retardant Test, apples, foliar spray compared with root drench. It counts as in vivo, Apples (Red Delicious). The conditions noted are these: 672 h, approximately 28 days, Table IX, read-out: Percentage Reduction in Height of Apples (Compared to formulation blank); for percent reduction in plant height at 2000 ppm: 2000 ppm (Foliar); for percent reduction in plant height at 2000 µg/mL: soil, 2000 pmm (Root), root drench.
Source text: as §6, §7

The text below walks through data of patent US4875922A, “Pyrimidine derivatives” (Imperial Chemical Industries PLC, priority 1986, dated 1989).

In the case of `CC(C)C#CC(O)(c1cncnc1)C(C)C` (centres unmarked) [Compound 9, 2-Methyl-1-(3-methylbut-1-yne)-1-(pyrimidin-5-yl)propan-1-ol], in the test with Barley, the “G = Greening effect” value was 2 (31-60%), the “I = Interligular or internodal length reduction” value was 3 (61-100%), the “R = Retardation” value was 2 (31-60%) and the “T = Tillering or side shooting” value was 2 (31-60%). In addition, in the test on Wheat, the “G = Greening effect” value is on record as 2 (31-60%), the “I = Interligular or internodal length reduction” value was 3 (61-100%), the “R = Retardation” value was 2 (31-60%) and the “T = Tillering or side shooting” value was 2 (31-60%). For the same molecule, in the test on Rice [1], the “A = Apical damage” value was 1 (10-30%), the “G = Greening effect” value is reported as 1 (10-30%), the “I = Interligular or internodal length reduction” value is 1 (10-30%) and the “R = Retardation” value was 1 (10-30%). In addition, in the test on Apple, the “G = Greening effect” value is reported as 1 (10-30%), the “I = Interligular or internodal length reduction” value was 3 (61-100%) and the “R = Retardation” value is recorded as 3 (61-100%). Further, in the test with Tomato, the “G = Greening effect” value is given as 1 (10-30%), the “I = Interligular or internodal length reduction” value is 1 (10-30%) and the “R = Retardation” value is given as 1 (10-30%). Also, in the test on Rice [2], the Percent reduction in rice height vs formulation blank at 500 ppm stood at 11% and the Percent reduction in rice height vs formulation blank at 2000 ppm was found to be 18%. Besides, in the test with Spring Barley, the percent reduction in plant height at 500 ppm is 20% and the percent reduction in plant height at 2000 ppm came out at 49%. Besides, in the test with Apples, the percent reduction in plant height at 2000 ppm was determined as 0% and the percent reduction in plant height at 2000 µg/mL was found to be 63%.
In the case of `CC(C)C(O)(C#CC(C)(C)C)c1cncnc1` (centres unmarked) [Compound 10, 2-Methyl-1-(3,3-dimethylbut-1-yne)-1-(pyrmidin-5-yl)propan-1-ol], in the test with Barley, the “G = Greening effect” value was 2 (31-60%), the “I = Interligular or internodal length reduction” value is reported as 3 (61-100%), the “R = Retardation” value was 2 (31-60%) and the “T = Tillering or side shooting” value was 2 (31-60%). Besides, in the test with Wheat, the “G = Greening effect” value is 2 (31-60%), the “I = Interligular or internodal length reduction” value is reported as 3 (61-100%), the “R = Retardation” value was 2 (31-60%) and the “T = Tillering or side shooting” value was 1 (10-30%). Besides, in the test on Rice [1], the “G = Greening effect” value is listed as 1 (10-30%), the “I = Interligular or internodal length reduction” value is listed as 2 (31-60%) and the “R = Retardation” value is reported as 2 (31-60%). In the test on Apple, the “I = Interligular or internodal length reduction” value is reported as 3 (61-100%) and the “R = Retardation” value was 2 (31-60%). Besides, in the test with Rice [2], the Percent reduction in rice height vs formulation blank at 500 ppm worked out at 9% and the Percent reduction in rice height vs formulation blank at 2000 ppm was 20%. In the test with Spring Barley, the percent reduction in plant height at 500 ppm stood at 29% and the percent reduction in plant height at 2000 ppm worked out at 62%. In the test on Apples, the percent reduction in plant height at 2000 ppm was found to be 4% and the percent reduction in plant height at 2000 µg/mL was 69%.
With `CC(C)CCC#CC(O)(c1cncnc1)C(C)C` (centres unmarked) [Compound 12, 2-Methyl-1-(5-methylhex-1-yne)-1-(pyrimidin-5-yl)-propan-1-ol], in the test with Barley, the “G = Greening effect” value is given as 2 (31-60%), the “I = Interligular or internodal length reduction” value is 3 (61-100%), the “R = Retardation” value is given as 2 (31-60%) and the “T = Tillering or side shooting” value is reported as 3 (61-100%). Besides, in the test with Wheat, the “G = Greening effect” value is 1 (10-30%), the “I = Interligular or internodal length reduction” value is listed as 2 (31-60%), the “R = Retardation” value is 2 (31-60%) and the “T = Tillering or side shooting” value is reported as 1 (10-30%). Besides, in the test on Rice [1], the “G = Greening effect” value is reported as 1 (10-30%), the “I = Interligular or internodal length reduction” value was 2 (31-60%) and the “R = Retardation” value is 2 (31-60%). Further, the “T = Tillering or side shooting” value with Rice [1] (* = decrease in tillering) is on record as 1 (10-30%). Moreover, in the test on Apple, the “G = Greening effect” value is given as 1 (10-30%), the “I = Interligular or internodal length reduction” value is 3 (61-100%) and the “R = Retardation” value is recorded as 2 (31-60%). Further, the “G = Greening effect” value in the test with Tomato is 1 (10-30%). In the test on Rice [2], the Percent reduction in rice height vs formulation blank at 500 ppm came out at 5% and the Percent reduction in rice height vs formulation blank at 2000 ppm turned out to be 8%. Besides, in the test on Spring Barley, the percent reduction in plant height at 500 ppm worked out at 3% and the percent reduction in plant height at 2000 ppm worked out at 19%. Further, in the test on Apples, the percent reduction in plant height at 2000 ppm was found to be 2% and the percent reduction in plant height at 2000 µg/mL worked out at 58%.
As for `CC(C)CCC(O)(c1cncnc1)C(C)C` (centres unmarked) [Compound 13, 2-Methyl-1-(3-methylbutyl)-1-(pyrimidin-5-yl)-propan-1-ol], in the test on Barley, the “G = Greening effect” value is listed as 2 (31-60%), the “I = Interligular or internodal length reduction” value is reported as 3 (61-100%), the “R = Retardation” value is given as 2 (31-60%) and the “T = Tillering or side shooting” value is on record as 2 (31-60%). In the test on Wheat, the “I = Interligular or internodal length reduction” value was 3 (61-100%), the “R = Retardation” value is on record as 2 (31-60%) and the “T = Tillering or side shooting” value was 1 (10-30%). For the same molecule, in the test on Rice [1], the “G = Greening effect” value is 1 (10-30%), the “I = Interligular or internodal length reduction” value is listed as 2 (31-60%) and the “R = Retardation” value is 2 (31-60%). In addition, in the test with Apple, the “G = Greening effect” value was 2 (31-60%), the “I = Interligular or internodal length reduction” value was 3 (61-100%) and the “R = Retardation” value is 3 (61-100%). Further, in the test with Tomato, the “I = Interligular or internodal length reduction” value is listed as 2 (31-60%) and the “R = Retardation” value was 2 (31-60%). Also, in the test on Rice [2], the Percent reduction in rice height vs formulation blank at 500 ppm was 8% and the Percent reduction in rice height vs formulation blank at 2000 ppm was determined as 9%. Further, in the test on Spring Barley, the percent reduction in plant height at 500 ppm is 2% and the percent reduction in plant height at 2000 ppm is 11%. In addition, in the test with Apples, the percent reduction in plant height at 2000 ppm was determined as 7% and the percent reduction in plant height at 2000 µg/mL turned out to be 70%.
